Results reported in patent US20240016779A1, “COMPOSITION FOR PREVENTING AND TREATING INFLAMMATORY DISEASE AND AUTOIMMUNE DISEASES AND NON-ALCOHOLIC FATTY LIVER DISEASE, COMPRISING EXTRACT DERIVED FROM CENTIPEDA MINIMA” (D-NATURE CO., LTD., priority 2020, published 2024).

Assays:
Type in all cases: cell-based
3T3-L1 cells [1] = experiment: Adipocyte differentiation inhibitory effect; settings: tested 0.16, 0.31, 0.63, 1.25 μg/ml
Method: To confirm the effect of the Centipeda minima extract for inhibiting non-alcoholic steatohepatitis, an experiment was performed on preadipocytes according to an inflammatory disease treatment agent.
Specifically, the evaluation was performed by using 3T3-L1 cells, which are preadipocytes, and after the 3T3-L1 cells were treated with each of JAKI and elafibranor at concentrations of 0 μg/ml, 0.16 μg/ml, 0.31 μg/ml, 0.63 μg/ml, and 1.25 μg/ml and then cultured for 6 hours under the same conditions, the changes of the 3T3-L1 cells were analyzed.

3T3-L1 cells [2] = experiment: TNF-a induced MCP-1 production in preadipocytes; settings: 0.16 to 2.5 μg/ml
Method: To confirm the non-alcoholic steatohepatitis inhibitory effect of the Centipeda minima extract, an experiment was performed with TNF-a induced MCP-1 production in preadipocytes according to an inflammatory disease treatment agent.
Specifically, the evaluation was performed by using 3T3-L1 cells, which are preadipocytes, and after the 3T3-L1 cells were treated with each of JAKI and elafibranor at concentrations of 0 μg/ml, 0.16 μg/ml, 0.31 μg/ml, 0.63 μg/ml, 1.25 μg/ml, and 2.5 μg/ml and then cultured for 6 hours under the same conditions, the changes of the MCP-1 production were analyzed.

LX-2 cells = experiment: Liver fibrosis-related protein expression; settings: 40 μM, 24 hours
Method: Specifically, the evaluation was performed by using LX-2 cells, which are hepatic stellate cells. LX-2 cells treated with TGF-P1 at a concentration of 5 ng/ml were treated with JAKI at concentrations of 0 μM, 20 μM, and 40 μM, and then cultured under the same conditions for 24 hours. Thereafter, the protein expression levels of TGF-131, collagen type-1, MMP-2, TIMP1, and GAPDH, and the protein expression ratios of TGF-131, collagen type-1, MMP-2, and TIMP1 compared to GAPDH were analyzed.
Specifically, the evaluation was performed by using LX-2 cells, which are hepatic stellate cells. The LX-2 cells treated with 5 ng/ml TGF-P1 were treated with elafibranor at concentrations of 0 μM, 20 μM, 40 μM, and 80 μM in the control group of the present invention, and the cultured for 24 hours under the same conditions. Then, the protein expression ratios of TGF-131, collagen type-1, MMP-2, and TIMP1 compared to GAPDH were analyzed.

3T3-L1 cells [3] = experiment: TNF-a induced IL-6 production in preadipocytes; settings: 0.16 to 2.5 μg/ml
Method: To confirm the non-alcoholic steatohepatitis inhibitory effect of the Centipeda minima extract, an experiment was performed with INF-a induced IL-6 production in preadipocytes according to an inflammatory disease treatment agent.
Specifically, the evaluation was performed by using 3T3-L1 cells, which are preadipocytes, and after the 3T3-L1 cells were treated with each of JAKI and elafibranor at concentrations of 0 μg/ml, 0.16 μg/ml, 0.31 μg/ml, 0.63 μg/ml, 1.25 μg/ml, and 2.5 μg/ml and then cultured for 6 hours under the same conditions, the changes of the IL-6 production were analyzed.

## CSc1ccc(C(=O)/C=C/c2cc(C)c(OC(C)(C)C(=O)O)c(C)c2)cc1 [elafibranor]
3T3-L1 cells [1]
  concentration from which adipocyte differentiation is inhibited: ≥ 0.63 µg/mL
3T3-L1 cells [2]
  change in the MCP-1 production: no change
LX-2 cells
  expression ratio of MMP-2 protein compared to GAPDH: decreased
  expression ratio of TGF-β1 protein compared to GAPDH: decreased
  expression ratio of TIMP1 protein compared to GAPDH: decreased
  expression ratio of collagen type-1 protein compared to GAPDH: decreased
3T3-L1 cells [3]
  change in the IL-6 production: no change
